The NIST ThermoML archive (doi:10.1021/acs.jced.7b00646)
± gives the expanded uncertainty stated by the source.

Assay: xn = mol fraction of the nth substance listed
Settings: 318.15 K, 101.3 kPa, Liquid, Alternating current cell with electrodes

Compound | electrical conductivity (x2 = 0.05) [S/m] | electrical conductivity (x2 = 0.1) [S/m] | electrical conductivity (x2 = 0.2001) [S/m] | electrical conductivity (x2 = 0.2999) [S/m] | electrical conductivity (x2 = 0.4) [S/m] | electrical conductivity (x2 = 0.5002) [S/m] | electrical conductivity (x2 = 0.5998) [S/m] | electrical conductivity (x2 = 0.7) [S/m] | electrical conductivity (x2 = 0.8) [S/m] | electrical conductivity (x2 = 0.8999) [S/m] | electrical conductivity (x1 = 1) [S/m] | also measured
O=C1OCCO1 [ethylene carbonate] + CCCC[n+]1ccn(C)c1.O=S(=O)([N-]S(=O)(=O)C(F)(F)F)C(F)(F)F | 1.36 ± 0.033 | 1.87 ± 0.02 | 2.06 ± 0.021 | 1.908 ± 0.019 | 1.7 ± 0.017 | 1.504 ± 0.015 | 1.313 ± 0.013 | 1.17 ± 0.012 | 1.07 ± 0.011 | 0.965 ± 0.01 |  | 
CC1COC(=O)O1 (centres undefined) [4-methyl-1,3-dioxolan-2-one] + CCCC[n+]1ccn(C)c1.O=S(=O)([N-]S(=O)(=O)C(F)(F)F)C(F)(F)F | 1.08 ± 0.026 | 1.51 ± 0.017 | 1.75 ± 0.018 | 1.68 ± 0.017 | 1.53 ± 0.016 | 1.36 ± 0.014 | 1.224 ± 0.012 | 1.114 ± 0.011 | 1.009 ± 0.01 | 0.924 ± 0.009 |  | 
O=C1CCCO1 [γ-butyrolactone] + CCCC[n+]1ccn(C)c1.O=S(=O)([N-]S(=O)(=O)C(F)(F)F)C(F)(F)F | 1.43 ± 0.034 | 1.95 ± 0.021 | 2.13 ± 0.021 | 1.96 ± 0.02 | 1.72 ± 0.018 | 1.506 ± 0.015 | 1.307 ± 0.013 | 1.16 ± 0.012 | 1.03 ± 0.011 | 0.937 ± 0.009 |  | 
CCCC[n+]1ccn(C)c1.O=S(=O)([N-]S(=O)(=O)C(F)(F)F)C(F)(F)F + O=C1CCCO1 |  |  |  |  |  |  |  |  |  |  | 0.877 ± 0.009 | 
CCCC[n+]1ccn(C)c1.O=S(=O)([N-]S(=O)(=O)C(F)(F)F)C(F)(F)F + O=C1OCCO1 |  |  |  |  |  |  |  |  |  |  | 0.877 ± 0.009 | 
CCCC[n+]1ccn(C)c1.O=S(=O)([N-]S(=O)(=O)C(F)(F)F)C(F)(F)F + CC1COC(=O)O1 |  |  |  |  |  |  |  |  |  |  | 0.877 ± 0.009 | 
CCCC[n+]1ccn(C)c1.O=S(=O)([N-]S(=O)(=O)C(F)(F)F)C(F)(F)F + COC(=O)OC |  |  |  |  |  |  |  |  |  |  | 0.877 ± 0.009 | electrical conductivity (x1 = 0.05): 0.587 ± 0.023 S/m; electrical conductivity (x1 = 0.1): 1.36 ± 0.021 S/m; electrical conductivity (x1 = 0.2001): 2.12 ± 0.022 S/m; electrical conductivity (x1 = 0.2999): 2.14 ± 0.021 S/m; electrical conductivity (x1 = 0.4): 1.93 ± 0.02 S/m; electrical conductivity (x1 = 0.5002): 1.68 ± 0.017 S/m; electrical conductivity (x1 = 0.5998): 1.42 ± 0.015 S/m; electrical conductivity (x1 = 0.7): 1.23 ± 0.013 S/m; electrical conductivity (x1 = 0.8): 1.08 ± 0.011 S/m; electrical conductivity (x1 = 0.8999): 0.965 ± 0.01 S/m
